How the values were obtained:
[1] = molecular target: T1, DLK (Homo sapiens, UniProt Q12852); assay: DLK biochemical assay (TR-FRET, MKK7 phosphorylation); conditions: DLK catalytic domain, MKK7 substrate, 60 μM ATP
T1 construct: 10 nM DLK, catalytic domain, Carna Biosiences; purchased Carna Biosciences ('Carna Biosiences' [sic])
T1 sequence (Q12852 125-366 limits assumed): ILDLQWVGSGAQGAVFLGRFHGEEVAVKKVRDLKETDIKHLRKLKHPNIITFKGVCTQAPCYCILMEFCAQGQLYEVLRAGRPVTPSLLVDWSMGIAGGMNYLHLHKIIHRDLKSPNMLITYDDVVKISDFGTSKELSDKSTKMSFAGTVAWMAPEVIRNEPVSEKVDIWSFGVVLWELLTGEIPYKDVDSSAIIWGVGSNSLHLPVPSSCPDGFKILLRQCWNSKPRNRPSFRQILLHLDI
How it was run: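 TR-FRET read-out (ratio of 665 nm acceptor to Eu donor channel) tracks MKK7 T275/S277 phosphorylation by DLK, using Eu-labelled anti-phospho-MKK7 and XL665-labelled anti-His on His-MKK7. Reactions were stopped and detected in pH 7.5 Tris buffer containing 100 mM EDTA, 100 mM NaCl, 200 mM KF and 0.01% Tween 20.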

[2] = molecular target: T2, LZK (Homo sapiens, UniProt O43283); assay: LZK biochemical assay (TR-FRET, MKK7 phosphorylation); conditions: LZK catalytic domain, MKK7 substrate, 15 μM ATP
T2 construct: 10 nM LZK, catalytic domain, Carna Biosiences in assay buffer; purchased Carna Biosciences ('Carna Biosiences' [sic])
T2 sequence (O43283 168-409 limits assumed): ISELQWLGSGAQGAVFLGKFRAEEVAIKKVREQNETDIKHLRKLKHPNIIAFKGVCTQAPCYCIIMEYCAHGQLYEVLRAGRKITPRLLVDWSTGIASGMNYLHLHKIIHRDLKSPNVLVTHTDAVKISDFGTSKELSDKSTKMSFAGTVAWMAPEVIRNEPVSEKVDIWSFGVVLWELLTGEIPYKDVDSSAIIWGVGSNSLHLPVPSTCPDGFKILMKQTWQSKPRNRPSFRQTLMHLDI

| Compound | IC50 [1] | IC50 [2] |
| --- | --- | --- |
| CC[C@H](C)NC(=O)c1cc(-c2cnn(C(c3c(F)cncc3F)C(C)C)c2)cc2nc(N)nn12 (single isomer, unassigned) [Example I-124] | 0.06 µM | 0.27 µM |
| CC[C@H](C)NC(=O)c1cc(-c2cnn(C(c3c(F)cncc3F)C(C)C)c2)cc2nc(N)nn12 (single isomer, unassigned) [Example I-125] | 0.0054 µM | 0.066 µM |
| CCC(c1ccc(Cl)s1)n1cc(-c2cc(C(=O)N[C@@H](C)CC)c3nc(N)nn3c2)cn1 (single isomer, unassigned) [Example I-130] | 0.053 µM | 0.1 µM |
| CCC(c1ccc(Cl)s1)n1cc(-c2cc(C(=O)N[C@@H](C)CC)c3nc(N)nn3c2)cn1 (single isomer, unassigned) [Example I-131] | 0.0015 µM | 0.033 µM |
| CC[C@H](NC(=O)c1cc(-c2cnn(Cc3ccccc3)c2)cn2nc(N)nc12)C(F)(F)F (single isomer, unassigned) [Example I-133] | 0.11 µM | 0.33 µM |
| CC[C@@H](NC(=O)c1cc(-c2cnn(Cc3ccccc3)c2)cn2nc(N)nc12)C(F)(F)F (single isomer, unassigned) [Example I-134] | 0.23 µM | 0.97 µM |
| COC[C@H](C)NC(=O)c1cc(-c2cnn(Cc3ccc(F)cc3)c2)cn2nc(N)nc12 (single isomer, unassigned) [Example I-135, 2-Amino-6-{1-[(4-fluorophenyl)methyl]-1H-pyrazol-4-yl}-N-[(25)-1-methoxypropan-2-yl][1,2,4]triazolo[1,5-a]pyridine-8-carboxamide] | 0.19 µM | 0.55 µM |
| CC(CF)NC(=O)c1cc(-c2cnn(C(c3ccccc3)C(C)C)c2)cn2nc(N)nc12 (single isomer, unassigned) [Example I-139, 2-Amino-N-(1-fluoropropan-2-yl)-6-{1-[2-methyl-1-phenylpropyl]-1H-pyrazol-4-yl}[1,2,4]triazolo[1,5-a]pyridine-8-carboxamide] | 0.0017 µM | 0.064 µM |
| CC(CF)NC(=O)c1cc(-c2cnn(C(c3ccccc3)C(C)C)c2)cn2nc(N)nc12 (single isomer, unassigned) [Example I-140, 2-Amino-N-(1-fluoropropan-2-yl)-6-[1-(2-methyl-1-phenylpropyl)-1H-pyrazol-4-yl][1,2,4]triazolo[1,5-a]pyridine-8-carboxamide] | 0.0005 µM | 0.032 µM |
| CC(CF)NC(=O)c1cc(-c2cnn(C(c3ccccc3)C(C)C)c2)cn2nc(N)nc12 (single isomer, unassigned) [Example I-141, 2-Amino-N-(1-fluoropropan-2-yl)-6-[1-(2-methyl-1-phenylpropyl)-1H-pyrazol-4-yl][1,2,4]triazolo[1,5-a]pyridine-8-carboxamide] | 0.026 µM | 0.355 µM |
| CC(CF)NC(=O)c1cc(-c2cnn(C(c3ccccc3)C(C)C)c2)cn2nc(N)nc12 (single isomer, unassigned) [Example I-142, 2-Amino-N-[1-fluoropropan-2-yl]-6-{1-[2-methyl-1-phenylpropyl]-1H-pyrazol-4-yl}[1,2,4]triazolo[1,5-a]pyridine-8-carboxamide] | 0.0042 µM | 0.24 µM |
| CC(CF)NC(=O)c1cc(-c2cnn(C3CCOc4ccccc43)c2)cn2nc(N)nc12 (single isomer, unassigned) [Example I-145, 2-Amino-6-[1-(3,4-dihydro-2H-chromen-4-yl)-1H-pyrazol-4-yl]-N-(1-fluoropropan-2-yl)[1,2,4]triazolo[1,5-a]pyridine-8-carboxamide] | 0.11 µM | 0.11 µM |
| CC(CF)NC(=O)c1cc(-c2cnn(C3CCOc4ccccc43)c2)cn2nc(N)nc12 (single isomer, unassigned) [Example I-146, 2-Amino-6-[1-(3,4-dihydro-2H-chromen-4-yl)-1H-pyrazol-4-yl]-N-(1-fluoropropan-2-yl)[1,2,4]triazolo[1,5-a]pyridine-8-carboxamide] | 0.13 µM | 0.085 µM |
| CCC(c1ccc(C(F)(F)F)nc1)n1cc(-c2cc(C(=O)N[C@@H](C)CO)c3nc(N)nn3c2)cn1 (single isomer, unassigned) [Example I-152] | 0.0007 µM | 0.0039 µM |
| CCC(c1ccc(C(F)(F)F)nc1)n1cc(-c2cc(C(=O)N[C@@H](C)CO)c3nc(N)nn3c2)cn1 (single isomer, unassigned) [Example I-153, 2-Amino-N-[(25)-1-hydroxypropan-2-yl]-6-(1-{1-[6-(trifluoromethyl)pyridin-3-yl]propyl}-1H-pyrazol-4-yl)[1,2,4]triazolo[1,5-a]pyridine-8-carboxamide] | 0.0062 µM | 0.029 µM |
| C[C@@H](CO)NC(=O)c1cc(-c2cnn([C@H](c3ccc(C(F)(F)F)nc3)C3CCOCC3)c2)cn2nc(N)nc12 (single isomer, unassigned) [Example I-155, 2-Amino-N-[(25)-1-hydroxypropan-2-yl]-6-(1-{tetrahydro-2H-pyran-4-yl[6-(trifluoromethyl)pyridin-3-yl]methyl}-1H-pyrazol-4-yl)[1,2,4]triazolo[1,5-a]pyridine-8-carboxamide] | 0.0007 µM | 0.0039 µM |
| C[C@@H](CO)NC(=O)c1cc(-c2cnn(C(c3ccc(C(F)(F)F)nc3)C3CCOCC3)c2)cn2nc(N)nc12 (single isomer, unassigned) [Example I-156, 2-Amino-N-[(25)-1-hydroxypropan-2-yl]-6-(1-{tetrahydro-2H-pyran-4-yl[6-(trifluoromethyl)pyridin-3-yl]methyl}-1H-pyrazol-4-yl)[1,2,4]triazolo[1,5-a]pyridine-8-carboxamide] | 0.013 µM | 0.023 µM |

The next lines start with the values.

| IC50 [1] | IC50 [2] | Compound |
| --- | --- | --- |
| 0.008 µM | 0.007 µM | CC[C@H](C)NC(=O)c1cc(-c2cnn(C(c3ccc(C(F)(F)F)nc3)C3CCOCC3)c2)cc2nc(N)nn12 (single isomer, unassigned) [Example I-112] |
| 0.049 µM | 0.13 µM | CCC(c1ccc(OCC(F)(F)F)nc1)n1cc(-c2cc(C(=O)N[C@@H](C)CC)n3nc(N)nc3c2)cn1 (single isomer, unassigned) [Example I-114] |
| 0.0042 µM | 0.02 µM | CCC(c1ccc(OCC(F)(F)F)nc1)n1cc(-c2cc(C(=O)N[C@@H](C)CC)n3nc(N)nc3c2)cn1 (single isomer, unassigned) [Example I-115] |
| 0.073 µM | 0.25 µM | CC[C@H](C)NC(=O)c1cc(-c2cnn(C(c3ccc(OCC(F)(F)F)nc3)C(C)C)c2)cc2nc(N)nn12 (single isomer, unassigned) [Example I-117] |
| 0.0086 µM | 0.029 µM | CC[C@H](C)NC(=O)c1cc(-c2cnn(C(c3ccc(OCC(F)(F)F)nc3)C(C)C)c2)cc2nc(N)nn12 (single isomer, unassigned) [Example I-118] |
| 0.044 µM | 0.14 µM | CC[C@H](C)NC(=O)c1cc(-c2cnn(C(c3ccc(OCC(F)(F)F)nc3)C3CC3)c2)cc2nc(N)nn12 (single isomer, unassigned) [Example I-120] |
| 0.0019 µM | 0.03 µM | CC[C@H](C)NC(=O)c1cc(-c2cnn(C(c3ccc(OCC(F)(F)F)nc3)C3CC3)c2)cc2nc(N)nn12 (single isomer, unassigned) [Example I-121] |
| 0.017 µM | 0.052 µM | CC[C@H](C)NC(=O)c1cc(-c2cnn(C(c3ccnc(OC)c3)C(C)C)c2)cc2nc(N)nn12 (single isomer, unassigned) [Example I-127] |
| 0.0005 µM | 0.0033 µM | CC[C@H](C)NC(=O)c1cc(-c2cnn([C@H](c3ccnc(OC)c3)C(C)C)c2)cc2nc(N)nn12 (single isomer, unassigned) [Example I-128] |
| 0.0017 µM | 0.013 µM | CC[C@@H](c1ccc(F)cc1)n1cc(-c2cc(C(=O)NC(C)CF)n3nc(N)nc3c2)cn1 (single isomer, unassigned) [Example I-149, 2-Amino-7-{1-[(15)-1-(4-fluorophenyl)propyl]-1H-pyrazol-4-yl}-N-(1-fluoropropan-2-yl)[1,2,4]triazolo[1,5-a]pyridine-5-carboxamide] |
| 0.0065 µM | 0.06 µM | CC[C@@H](c1ccc(F)cc1)n1cc(-c2cc(C(=O)NC(C)CF)n3nc(N)nc3c2)cn1 (single isomer, unassigned) [Example I-150, 2-Amino-7-{1-[(15)-1-(4-fluorophenyl)propyl]-1H-pyrazol-4-yl}-N-(1-fluoropropan-2-yl)[1,2,4]triazolo[1,5-a]pyridine-5-carboxamide] |
| 0.0006 µM | 0.0034 µM | CC[C@@H](c1ccc(OC(F)(F)F)nc1)n1cc(-c2cc(C(=O)N[C@@H](C)CO)c3nc(N)nn3c2)cn1 (single isomer, unassigned) [Example I-158, 2-Amino-N-[(25)-1-hydroxypropan-2-yl]-6-(1-{1-[6-(trifluoromethoxy)pyridin-3-yl]propyl}-1H-pyrazol-4-yl)[1,2,4]triazolo[1,5-a]pyridine-8-carboxamide] |

Source: US20230086702A1, “SUBSTITUTED 2-AMINO-PYRAZOLYL-[1,2,4]TRIAZOLO[1,5A]PYRIDINE DERIVATIVES AND USE THEREOF” (The Johns Hopkins University, priority 2019, published 2023)
